The values that follow come from PubChem BioAssay AID1259407 (Chemical Carcinogenesis Research Information System (CCRIS), 2018).

Active and inactive are the calls of the source. No rule for the calls is given here.

This data set deals with CCRIS mutagenicity, Ames/micronucleus/aberration tests. The experiment in a line: CCRIS mutagenicity studies.
Where [1] appears, read: Test System: AMES SALMONELLA TYPHIMURIUM, Strain/Indicator: TA98, Metabolic Activation: NONE, Method: PREINCUBATION
Setting [2] is: Test System: AMES SALMONELLA TYPHIMURIUM, Strain/Indicator: TA100, Metabolic Activation: NONE, Method: PREINCUBATION

As to `Cc1cnc2ccc3c(nc(N)n3C)c2n1`, the mutagenic call runs as follows: (End Point: IN VIVO MICRONUCLEUS, Test System: BONE MARROW POLYCHROMATIC ERYTHROCYTES, Species: MOUSE, Strain/Sex: BALB/C/MALE, Route: IP INJECTION) “inactive; negative”; (Test System: AMES SALMONELLA TYPHIMURIUM, Strain/Indicator: TA98, Metabolic Activation: CYNOMOLGUS MONKEY, LIVER, MICROSOMES, Method: PREINCUBATION) “inactive; negative”; (Test System: AMES SALMONELLA TYPHIMURIUM, Strain/Indicator: TA98, Metabolic Activation: CYNOMOLOGUS MONKEY, LIVER, MICROSOMES, 2,3,7,8-TETRACHLORODIBENZO-P-DIOXIN, Method: PREINCUBATION) “active; positive”; (Test System: AMES SALMONELLA TYPHIMURIUM, Strain/Indicator: TA98, Metabolic Activation: CYNOMOLOGUS MONKEY, LIVER, MICROSOMES, 2-AMINO-3-METHYLIMIDAZO[4,5-F]QUINOLINE, Method: PREINCUBATION) “active; positive”; (Test System: AMES SALMONELLA TYPHIMURIUM, Strain/Indicator: TA98, Metabolic Activation: CYNOMOLOGUS MONKEY, LIVER, MICROSOMES, RIFAMPICIN, Method: PREINCUBATION) “inactive; negative”; (Test System: AMES SALMONELLA TYPHIMURIUM, Strain/Indicator: TA98, Metabolic Activation: HUMAN, LIVER, MICROSOMES, Method: PREINCUBATION) “active; positive”. For the same molecule, the mutagenic call reads like this: (Test System: AMES SALMONELLA TYPHIMURIUM, Strain/Indicator: TA98, Metabolic Activation: MONKEY, LIVER, MICROSOMES, Method: PREINCUBATION) “active; positive”; under setting [1], “inactive; negative”; (Test System: AMES SALMONELLA TYPHIMURIUM, Strain/Indicator: TA98, Metabolic Activation: PATAS MONKEY, LIVER, MICROSOMES, Method: PREINCUBATION) “active; positive”; (Test System: AMES SALMONELLA TYPHIMURIUM, Strain/Indicator: TA98, Metabolic Activation: RABBIT (6 TO 9 D OF AGE), LIVER, MICROSOMES, 3-METHYLCHOLANTHRENE, Method: PREINCUBATION) “inactive; negative”; (Test System: AMES SALMONELLA TYPHIMURIUM, Strain/Indicator: TA98, Metabolic Activation: RABBIT (6 TO 17 D OF AGE), LIVER, MICROSOMES, Method: PREINCUBATION) “inactive; negative”; (Test System: AMES SALMONELLA TYPHIMURIUM, Strain/Indicator: TA98, Metabolic Activation: RABBIT (9 D OF AGE TO ADULT), LIVER, MICROSOMES, 3-METHYLCHOLANTHRENE, Method: PREINCUBATION) “active; positive”. Besides, the mutagenic call by setting is: (Test System: AMES SALMONELLA TYPHIMURIUM, Strain/Indicator: TA98, Metabolic Activation: RABBIT (17 D OF AGE TO ADULT), LIVER, MICROSOMES, Method: PREINCUBATION) “active; positive”; (Test System: AMES SALMONELLA TYPHIMURIUM, Strain/Indicator: TA98, Metabolic Activation: RAT, LIVER, MICROSOMES, Method: PREINCUBATION) “active; positive”; (Test System: AMES SALMONELLA TYPHIMURIUM, Strain/Indicator: TA98, Metabolic Activation: RAT, LIVER, S-9, AROCLOR 1254, Method: PREINCUBATION) “active; positive”; (Test System: AMES SALMONELLA TYPHIMURIUM, Strain/Indicator: TA98, Metabolic Activation: RAT, LIVER, S-9, AROCLOR 1254, Method: STANDARD PLATE) “active; positive”; under setting [2], “inactive; negative”; (Test System: AMES SALMONELLA TYPHIMURIUM, Strain/Indicator: TA100, Metabolic Activation: RAT, LIVER, S-9, AROCLOR 1254, Method: PREINCUBATION) “active; positive”. The mutagenic call runs as follows: (Test System: AMES SALMONELLA TYPHIMURIUM, Strain/Indicator: YG1019, Metabolic Activation: RAT LIVER S-9, AROCLOR, Method: PREINCUBATION) “active; positive”; (Test System: CHINESE HAMSTER V-79, Strain/Indicator: V-79/6-THIOGUANINE, Metabolic Activation: RAT, LIVER, S-9, AROCLOR 1254) “inactive; negative”; (Test System: UDS HAMSTER HEPATOCYTES, Strain/Indicator: THY INCORP, Metabolic Activation: NONE, Method: LIQUID SCINTILLATION COUNTING) “active; positive”; (Test System: UDS HUMAN HEPATOCYTES, Strain/Indicator: THY INCORP, Metabolic Activation: NONE, Method: AUTORADIOGRAPHY) “active; positive”; (Test System: UDS MOUSE HEPATOCYTES, Strain/Indicator: THY INCORP, Metabolic Activation: NONE, Method: AUTORADIOGRAPHY) “inactive; negative”; (Test System: UDS RAT HEPATOCYTES, Strain/Indicator: THY INCORP, Metabolic Activation: NONE, Method: AUTORADIOGRAPHY) “inactive; negative”. For the same molecule, the mutagenic call (Test System: UDS RAT HEPATOCYTES, Strain/Indicator: THY INCORP, Metabolic Activation: NONE, Method: LIQUID SCINTILLATION COUNTING) was “inactive; negative”.

Consider `Cc1cc2c(c(O)c1O)C(=O)c1c(O)cc(O)cc1C2=O`, for which the mutagenic call (Test System: AMES SALMONELLA TYPHIMURIUM, Strain/Indicator: TA98, Metabolic Activation: NONE, Method: STANDARD PLATE) is “inactive; negative”; the mutagenic call (Test System: AMES SALMONELLA TYPHIMURIUM, Strain/Indicator: TA100, Metabolic Activation: NONE, Method: STANDARD PLATE) is “inactive; negative”; the mutagenic call (Test System: AMES SALMONELLA TYPHIMURIUM, Strain/Indicator: TA1535, Metabolic Activation: NONE, Method: STANDARD PLATE) was “inactive; negative”; the mutagenic call (Test System: AMES SALMONELLA TYPHIMURIUM, Strain/Indicator: TA1537, Metabolic Activation: NONE, Method: STANDARD PLATE) was “active; positive”; the mutagenic call (Test System: AMES SALMONELLA TYPHIMURIUM, Strain/Indicator: TA1537, Metabolic Activation: RAT, LIVER, S-9, PCB, Method: STANDARD PLATE) was “active; positive”.

For the molecule `S=[Se]`, the mutagenic call was “active; positive” (End Point: IN VITRO CHROMOSOMAL ABERRATIONS, Test System: CHO-LB CELLS, Metabolic Activation: NONE); “active; positive” (End Point: IN VITRO CHROMOSOMAL ABERRATIONS, Test System: CHO-LB CELLS, Metabolic Activation: RAT, LIVER, S-9, AROCLOR 1254); “active; positive” (Test System: AMES SALMONELLA TYPHIMURIUM, Strain/Indicator: TA97, Metabolic Activation: HAMSTER, LIVER, S-9, AROCLOR 1254 (5 OR 10%), Method: PREINCUBATION); “inactive; negative” (Test System: AMES SALMONELLA TYPHIMURIUM, Strain/Indicator: TA97, Metabolic Activation: HAMSTER, LIVER, S-9, AROCLOR 1254 (30%), Method: PREINCUBATION); “active; positive” (Test System: AMES SALMONELLA TYPHIMURIUM, Strain/Indicator: TA97, Metabolic Activation: NONE, Method: PREINCUBATION); “active; positive” (Test System: AMES SALMONELLA TYPHIMURIUM, Strain/Indicator: TA97, Metabolic Activation: RAT, LIVER, S-9, AROCLOR 1254 (5 OR 10%), Method: PREINCUBATION). The mutagenic call runs as follows: (Test System: AMES SALMONELLA TYPHIMURIUM, Strain/Indicator: TA97, Metabolic Activation: RAT, LIVER, S-9, AROCLOR 1254 (30%), Method: PREINCUBATION) “inactive; negative”; (Test System: AMES SALMONELLA TYPHIMURIUM, Strain/Indicator: TA98, Metabolic Activation: HAMSTER, LIVER, S-9, AROCLOR 1254 (10%), Method: PREINCUBATION) “inactive; negative”; under setting [1], “inactive; negative”; (Test System: AMES SALMONELLA TYPHIMURIUM, Strain/Indicator: TA98, Metabolic Activation: RAT, LIVER, S-9, AROCLOR 1254 (10%), Method: PREINCUBATION) “inactive; negative”; (Test System: AMES SALMONELLA TYPHIMURIUM, Strain/Indicator: TA100, Metabolic Activation: HAMSTER, LIVER, S-9, AROCLOR 1254 (5%), Method: PREINCUBATION) “inactive; negative”; (Test System: AMES SALMONELLA TYPHIMURIUM, Strain/Indicator: TA100, Metabolic Activation: HAMSTER, LIVER, S-9, AROCLOR 1254 (10%), Method: PREINCUBATION) “active; positive”. Besides, the mutagenic call is “inactive; negative” under setting [2]; “inactive; negative” (Test System: AMES SALMONELLA TYPHIMURIUM, Strain/Indicator: TA100, Metabolic Activation: RAT, LIVER, S-9, AROCLOR 1254 (5 OR 10%), Method: PREINCUBATION); “inactive; negative” (Test System: AMES SALMONELLA TYPHIMURIUM, Strain/Indicator: TA1535, Metabolic Activation: HAMSTER, LIVER, S-9, AROCLOR 1254 (10%), Method: PREINCUBATION); “inactive; negative” (Test System: AMES SALMONELLA TYPHIMURIUM, Strain/Indicator: TA1535, Metabolic Activation: NONE, Method: PREINCUBATION); “inactive; negative” (Test System: AMES SALMONELLA TYPHIMURIUM, Strain/Indicator: TA1535, Metabolic Activation: RAT, LIVER, S-9, AROCLOR 1254 (10%), Method: PREINCUBATION).
